Laboratory results reported in patent US20100267561A1, “HERBICIDAL PYRIDAZINONE DERIVATIVES” (priority 2007, published 2010).
Like-named read-outs stand apart in the source and are kept apart here.

How the values were obtained:
Assay in all cases: Test B pre-/postemergence plant response
Format in all cases: in vivo
[1] = system: Italian ryegrass (Lolium multiflorum); settings: for pest or weed control at 31 g/ha / pest or weed control at 62 g/ha: Lolium multiflorum, read-out: Plant response rating, Ryegrass, Italian; for pest or weed control at 31 g/ha: 31 g ai/ha; for pest or weed control at 62 g/ha: 62 g ai/ha, 100 complete control
Source text: (§1) Seeds of plant species selected from blackgrass (Alopecurus myosuroides), downy bromegrass (Bromus tectorum), green foxtail (Setaria viridis), Italian ryegrass (Lolium multiflorum), wheat (Triticum aestivum), wild oat (Avena fatua), catchweed bedstraw (Galium aparine), bermudagrass (Cynodon dactylon), surinam grass (Brachiaria decumbens), cocklebur (Xanthium strumarium), corn (Zea mays), large crabgrass (Digitaria sanguinalis), woolly cupgrass (Eriochloa villosa), giant foxtail (Setaria faberii), goosegrass (Eleusine indica), johnsongrass (Sorghum halepense), kochia (Kochia scoparia), lambsquarters (Chenopodium album), morningglory (Ipomoea coccinea), eastern black (E.B.) nightshade (Solanum ptycanthum), yellow nutsedge (Cyperus esculentus), pigweed (Amaranthus retroflexus), common ragweed (Ambrosia elation), Russian thistle (Salsola iberica), soybean (Glycine max), common (oilseed) sunflower (Helianthus annuus), and velvetleaf (Abutilon theophrasti) were planted and treated preemergence with test chemicals formulated in a non-phytotoxic solvent mixture which included a surfactant.
(§2) At the same time, plants selected from these crop and weed species and also winter barley (Hordeum vulgare), canarygrass (Phalaris minor), chickweed (Stellaria media) and windgrass (Apera spica-venti) were treated with postemergence applications of some of the test chemicals formulated in the same manner. Plants ranged in height from 2 to 18 cm (1- to 4-leaf stage) for postemergence treatments.
(§3) Plant species in the flooded paddy test consisted of rice (Oryza sativa), umbrella sedge (Cyperus difformis), ducksalad (Heteranthera limosa) and barnyardgrass (Echinochloa crus-galli) grown to the 2-leaf stage for testing. At time of treatment, test pots were flooded to 3 cm above the soil surface, treated by application of test compounds directly to the paddy water, and then maintained at that water depth for the duration of the test. Treated plants and controls were maintained in a greenhouse for 13 to 15 days, after which time all species were compared to controls and visually evaluated. Plant response ratings, summarized in Table B, are based on a scale of 0 to 100 where 0 is no effect and 100 is complete control. A dash (-) response means no test result.

[2] = system: Russian thistle (Salsola iberica); settings: Preemergence
Source text: as §1, §2, §3

[3] = system: bermudagrass (Cynodon dactylon); settings: for pest or weed control at 31 g/ha: 31 g ai/ha; for pest or weed control at 62 g/ha: 62 g ai/ha, 100 complete control
Source text: as §1, §2, §3

corn (Zea mays) = settings: for Corn plant response rating (crop injury, 0 = no effect, 100 = complete kill) at 31 g/ha: 31 g ai/ha; for Corn plant response rating (crop injury, 0 = no effect, 100 = complete kill) at 62 g/ha: 62 g ai/ha, 100 complete control
Source text: as §1, §2, §3

[4] = system: downy bromegrass (Bromus tectorum); settings: for pest or weed control at 31 g/ha: 31 g ai/ha; for pest or weed control at 62 g/ha: 62 g ai/ha, 100 complete control
Source text: as §1, §2, §3

[5] = system: eastern black (E.B.) nightshade (Solanum ptycanthum); settings: Preemergence
Source text: as §1, §2, §3

[6] = system: green foxtail (Setaria viridis); settings: for pest or weed control at 31 g/ha: 31 g ai/ha; for pest or weed control at 62 g/ha: 62 g ai/ha, 100 complete control
Source text: as §1, §2, §3

[7] = 8 g ai/ha, postemergence, 0-100 scale
[8] = Preemergence, 8 g ai/ha, scale 0 to 100 (0 no effect, 100 complete control)
[9] = Preemergence, 16 g ai/ha, scale 0 to 100
[10] = 8 g ai/ha, scale 0 to 100 (0 no effect, 100 complete control)

Structure (SMILES): Cc1cc(-c2ccc(Br)cc2)nn1-c1c(O)cn[nH]c1=O [Compound 78, 4-[3-(4-bromophenyl)-5-methyl-1H-pyrazol-1-yl]-5-hydroxy-3(2H)-pyridazinone]
- Ryegrass, Italian plant response rating [1, 7]: 90
- Ryegrass, Italian plant response rating ([1]; 16 g ai/ha, postemergence, 0-100 scale): 98
- pest or weed control at 31 g/ha ([1]; post-emergence, Postemergence, scale 0 to 100): 100%
- pest or weed control at 62 g/ha ([1]; post-emergence, Postemergence, scale 0 to 100, 0 no effect): 100%
- pest or weed control at 31 g/ha ([1]; pre-emergence, Preemergence, scale 0 to 100 (0 no effect, 100 complete control)): 100%
- pest or weed control at 62 g/ha ([1]; pre-emergence, Preemergence, 0 to 100 scale, 0 no effect): 100%
- Ryegrass, Italian plant response rating [1, 8]: 98
- Ryegrass, Italian plant response rating [1, 9]: 98
- Russian Thistle plant response rating [2, 10]: 0
- Plant response rating, Russian Thistle ([2]; 31 g ai/ha, scale 0 to 100 (0 no effect, 100 complete control)): 0
- Plant response rating, Russian Thistle ([2]; 62 g ai/ha, 0 to 100 scale, 0 no effect, 100 complete control): 0
- Russian Thistle plant response rating ([2]; 16 g ai/ha, scale 0 to 100): 0
- Bermudagrass plant response rating [3, 7]: 80
- pest or weed control at 16 g/ha ([3]; Cynodon dactylon, post-emergence, Postemergence, 16 g ai/ha, scale 0 to 100, read-out: Plant response rating, Bermudagrass): 98%
- pest or weed control at 31 g/ha ([3]; Cynodon dactylon, post-emergence, Postemergence, scale 0 to 100, read-out: Plant response rating, Bermudagrass): 100%
- pest or weed control at 62 g/ha ([3]; Cynodon dactylon, post-emergence, Postemergence, scale 0 to 100, 0 no effect, read-out: Plant response rating, Bermudagrass): 100%
- pest or weed control at 31 g/ha ([3]; Cynodon dactylon, pre-emergence, Preemergence, scale 0 to 100 (0 no effect, 100 complete control), read-out: Plant response rating, Bermudagrass): 100%
- pest or weed control at 62 g/ha ([3]; Cynodon dactylon, pre-emergence, Preemergence, 0 to 100 scale, 0 no effect, read-out: Plant response rating, Bermudagrass): 100%
- Bermudagrass plant response rating [3, 8]: 85
- Bermudagrass plant response rating ([3]; Preemergence, 16 g ai/ha, scale 0 to 100 (0 no effect, 100 complete control)): 100
- Corn plant response rating (corn (Zea mays); [7]): 40
- Corn plant response rating (corn (Zea mays); [8]): 55
- Corn plant response rating (corn (Zea mays); [9]): 85
- Corn plant response rating (crop injury, 0 = no effect, 100 = complete kill) at 16 g/ha (corn (Zea mays); Zea mays, post-emergence, Postemergence, 16 g ai/ha, scale 0 to 100): 100%
- Corn plant response rating (crop injury, 0 = no effect, 100 = complete kill) at 31 g/ha (corn (Zea mays); Zea mays, post-emergence, Postemergence, scale 0 to 100): 100%
- Corn plant response rating (crop injury, 0 = no effect, 100 = complete kill) at 62 g/ha (corn (Zea mays); Zea mays, post-emergence, Postemergence, scale 0 to 100, 0 no effect): 100%
- Corn plant response rating (crop injury, 0 = no effect, 100 = complete kill) at 31 g/ha (corn (Zea mays); Zea mays, pre-emergence, Preemergence, scale 0 to 100 (0 no effect, 100 complete control)): 100%
- Corn plant response rating (crop injury, 0 = no effect, 100 = complete kill) at 62 g/ha (corn (Zea mays); Zea mays, pre-emergence, Preemergence, 0 to 100 scale, 0 no effect): 100%
- Bromegrass, Downy plant response rating [4, 7]: 55
- pest or weed control at 16 g/ha ([4]; Bromus tectorum, post-emergence, Postemergence, 16 g ai/ha, scale 0 to 100, read-out: Plant response rating, Bromegrass, Downy): 85%
- pest or weed control at 31 g/ha ([4]; Bromus tectorum, post-emergence, Postemergence, scale 0 to 100, read-out: Plant response rating, Bromegrass, Downy): 95%
- pest or weed control at 62 g/ha ([4]; Bromus tectorum, post-emergence, Postemergence, scale 0 to 100, 0 no effect, read-out: Plant response rating, Bromegrass, Downy): 100%
- pest or weed control at 31 g/ha ([4]; Bromus tectorum, pre-emergence, Preemergence, scale 0 to 100 (0 no effect, 100 complete control), read-out: Plant response rating, Bromegrass, Downy): 80%
- pest or weed control at 62 g/ha ([4]; Bromus tectorum, pre-emergence, Preemergence, 0 to 100 scale, 0 no effect, read-out: Plant response rating, Bromegrass, Downy): 98%
- Bromegrass, Downy plant response rating [4, 8]: 40
- Bromegrass, Downy plant response rating [4, 9]: 60
- Nightshade, E. B. plant response rating [5, 10]: 0
- Nightshade, E. B. plant response rating ([5]; 16 g ai/ha, scale 0 to 100): 0
- pest or weed control at 31 g/ha ([5]; Solanum, pre-emergence, 31 g ai/ha, scale 0 to 100 (0 no effect, 100 complete control), read-out: Plant response rating, Nightshade, E. B.): 0%
- pest or weed control at 62 g/ha ([5]; Solanum, pre-emergence, 62 g ai/ha, 0 to 100 scale, 0 no effect, 100 complete control, read-out: Plant response rating, Nightshade, E. B.): 55%
- Foxtail, Green plant response rating [6, 7]: 40
- Foxtail, Green plant response rating [6, 8]: 100
- Foxtail, Green plant response rating [6, 9]: 100
- pest or weed control at 16 g/ha ([6]; Setaria viridis, post-emergence, Postemergence, 16 g ai/ha, scale 0 to 100, read-out: Plant response rating, Foxtail, Green): 60%
- pest or weed control at 31 g/ha ([6]; Setaria viridis, post-emergence, Postemergence, scale 0 to 100, read-out: Plant response rating, Foxtail, Green): 80%
- pest or weed control at 62 g/ha ([6]; Setaria viridis, post-emergence, Postemergence, scale 0 to 100, 0 no effect, read-out: Plant response rating, Foxtail, Green): 100%
- pest or weed control at 31 g/ha ([6]; Setaria viridis, pre-emergence, Preemergence, scale 0 to 100 (0 no effect, 100 complete control), read-out: Plant response rating, Foxtail, Green): 100%
- pest or weed control at 62 g/ha ([6]; Setaria viridis, pre-emergence, Preemergence, 0 to 100 scale, 0 no effect, read-out: Plant response rating, Foxtail, Green): 100%
